Measurements taken from PubChem BioAssay (NCI).
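Five compound concentrations were applied to cells in 96-well plates for 48 hours; endpoints were derived by simple linear interpolation of the resulting dose-response curve. At the GI50, growth is halved. TGI denotes the concentration required for complete inhibition of growth.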

Experiments:
Assay in all cases: inhibition of tumour cell growth, NCI panel, 48 h; in the data active means GI50 below about 0.43 µM; inactive means the rest
SW-620 colon = tested on: SW-620 colon
RXF 393 renal = tested on: RXF 393 renal
MALME-3M melanoma = tested on: MALME-3M melanoma
K-562 leukemia = tested on: K-562 leukemia
TK-10 renal = tested on: TK-10 renal
DLD-1 colon = tested on: DLD-1 colon
LOX IMVI melanoma = tested on: LOX IMVI melanoma
SNB-78 CNS = tested on: SNB-78 CNS
EKVX NSCLC = tested on: EKVX NSCLC
SK-MEL-28 melanoma = tested on: SK-MEL-28 melanoma
IGROV1 ovarian = tested on: IGROV1 ovarian
SF-268 CNS = tested on: SF-268 CNS
UACC-257 melanoma = tested on: UACC-257 melanoma
SNB-75 CNS = tested on: SNB-75 CNS
786-0 renal = tested on: 786-0 renal
NCI-H226 lung = tested on: NCI-H226 lung
HCT-15 colon = tested on: HCT-15 colon
KM20L2 colon = tested on: KM20L2 colon
DMS 273 small cell lung = tested on: DMS 273 small cell lung
CCRF-CEM leukemia = tested on: CCRF-CEM leukemia
SR leukemia = tested on: SR leukemia
ACHN renal = tested on: ACHN renal
SNB-19 CNS = tested on: SNB-19 CNS
HT29 colon = tested on: HT29 colon
U251 CNS = tested on: U251 CNS
A549 NSCLC = tested on: A549 NSCLC
SK-MEL-2 melanoma = tested on: SK-MEL-2 melanoma
M14 melanoma = tested on: M14 melanoma
SF-295 CNS = tested on: SF-295 CNS
DMS 114 small cell lung = tested on: DMS 114 small cell lung
MOLT-4 leukemia = tested on: MOLT-4 leukemia
CAKI-1 renal = tested on: CAKI-1 renal
M19-MEL melanoma = tested on: M19-MEL melanoma
SK-MEL-5 melanoma = tested on: SK-MEL-5 melanoma
HCT-116 colon = tested on: HCT-116 colon
UO-31 renal = tested on: UO-31 renal
LXFL 529 NSCLC = tested on: LXFL 529 NSCLC
SK-OV-3 ovarian = tested on: SK-OV-3 ovarian
OVCAR-8 ovarian = tested on: OVCAR-8 ovarian
HL-60(TB) leukemia = tested on: HL-60(TB) leukemia
NCI-H522 lung = tested on: NCI-H522 lung
SF-539 CNS = tested on: SF-539 CNS
RPMI-8226 leukemia = tested on: RPMI-8226 leukemia
NCI-H460 lung = tested on: NCI-H460 lung
COLO 205 colon = tested on: COLO 205 colon
SN12C renal = tested on: SN12C renal
NCI-H23 lung = tested on: NCI-H23 lung
UACC-62 melanoma = tested on: UACC-62 melanoma
HOP-62 NSCLC = tested on: HOP-62 NSCLC
HCC-2998 colon = tested on: HCC-2998 colon
OVCAR-3 ovarian = tested on: OVCAR-3 ovarian
OVCAR-5 ovarian = tested on: OVCAR-5 ovarian
KM12 colon = tested on: KM12 colon
OVCAR-4 ovarian = tested on: OVCAR-4 ovarian
HOP-18 NSCLC = tested on: HOP-18 NSCLC
HOP-92 NSCLC = tested on: HOP-92 NSCLC
MCF7 breast = tested on: MCF7 breast
BT-549 breast = tested on: BT-549 breast
DU-145 prostate = tested on: DU-145 prostate
PC-3 prostate = tested on: PC-3 prostate
NCI/ADR-RES ovarian = tested on: NCI/ADR-RES ovarian
HS 578T breast = tested on: HS 578T breast
MDA-MB-435 = tested on: MDA-MB-435
MDA-MB-231 breast = tested on: MDA-MB-231 breast
MDA-N = tested on: MDA-N
T-47D breast = tested on: T-47D breast

O=C(CN(c1ccccc1)c1ccccc1)n1nnc2ccccc21
70.3 µM: TGI (LOX IMVI melanoma)
69.3 µM: TGI (SK-MEL-5 melanoma)
96 µM: TGI (SK-MEL-2 melanoma)
55.2 µM: TGI (UO-31 renal)
59.1 µM: TGI (NCI-H522 lung)
48.6 µM: TGI (M19-MEL melanoma)
85.7 µM: TGI (DMS 114 small cell lung)
> 100 µM: TGI (SW-620 colon) | TGI (RXF 393 renal) | TGI (MALME-3M melanoma) | TGI (K-562 leukemia) | TGI (TK-10 renal) | TGI (DLD-1 colon) | TGI (SNB-78 CNS) | TGI (EKVX NSCLC) | TGI (SK-MEL-28 melanoma) | TGI (IGROV1 ovarian) | TGI (SF-268 CNS) | TGI (UACC-257 melanoma) | TGI (SNB-75 CNS) | TGI (786-0 renal) | TGI (NCI-H226 lung) | TGI (HCT-15 colon) | TGI (KM20L2 colon) | TGI (DMS 273 small cell lung) | TGI (CCRF-CEM leukemia) | TGI (SR leukemia) | TGI (ACHN renal) | TGI (SNB-19 CNS) | TGI (HT29 colon) | TGI (U251 CNS) | TGI (A549 NSCLC) | TGI (M14 melanoma) | TGI (SF-295 CNS) | TGI (MOLT-4 leukemia) | TGI (CAKI-1 renal) | TGI (LXFL 529 NSCLC) | TGI (SK-OV-3 ovarian) | TGI (OVCAR-8 ovarian) | TGI (HL-60(TB) leukemia) | TGI (SF-539 CNS) | TGI (RPMI-8226 leukemia) | TGI (NCI-H460 lung) | TGI (COLO 205 colon) | TGI (SN12C renal) | TGI (NCI-H23 lung) | TGI (UACC-62 melanoma) | TGI (HOP-62 NSCLC) | TGI (HCC-2998 colon) | TGI (OVCAR-3 ovarian) | TGI (OVCAR-5 ovarian)
84.7 µM: TGI (HCT-116 colon)

COc1ccc2nc(NC(=O)C(=O)C(C#N)c3ccc([N+](=O)[O-])cc3)sc2c1 (stereo not drawn)
> 100 µM: TGI (SW-620 colon) | TGI (RXF 393 renal) | TGI (MALME-3M melanoma) | TGI (K-562 leukemia) | TGI (TK-10 renal) | TGI (DLD-1 colon) | TGI (LOX IMVI melanoma) | TGI (SNB-78 CNS) | TGI (KM12 colon) | TGI (EKVX NSCLC) | TGI (SK-MEL-28 melanoma) | TGI (IGROV1 ovarian) | TGI (SF-268 CNS) | TGI (UACC-257 melanoma) | TGI (SNB-75 CNS) | TGI (786-0 renal) | TGI (NCI-H226 lung) | TGI (HCT-15 colon) | TGI (OVCAR-4 ovarian) | TGI (KM20L2 colon) | TGI (DMS 273 small cell lung) | TGI (ACHN renal) | TGI (HOP-18 NSCLC) | TGI (SNB-19 CNS) | TGI (HT29 colon) | TGI (U251 CNS) | TGI (A549 NSCLC) | TGI (SK-MEL-2 melanoma) | TGI (M14 melanoma) | TGI (SF-295 CNS) | TGI (DMS 114 small cell lung) | TGI (MOLT-4 leukemia) | TGI (HOP-92 NSCLC) | TGI (CAKI-1 renal) | TGI (M19-MEL melanoma) | TGI (SK-MEL-5 melanoma) | TGI (HCT-116 colon) | TGI (UO-31 renal) | TGI (LXFL 529 NSCLC) | TGI (SK-OV-3 ovarian) | TGI (OVCAR-8 ovarian) | TGI (NCI-H522 lung) | TGI (SF-539 CNS) | TGI (RPMI-8226 leukemia) | TGI (NCI-H460 lung) | TGI (COLO 205 colon) | TGI (SN12C renal) | TGI (NCI-H23 lung) | TGI (UACC-62 melanoma) | TGI (HOP-62 NSCLC) | TGI (HCC-2998 colon) | TGI (OVCAR-3 ovarian) | TGI (OVCAR-5 ovarian)

Nc1ccn(C2CCC(CO)O2)c(=O)n1 (stereo not drawn)
> 1000 µM: TGI (SW-620 colon) | TGI (MALME-3M melanoma) | TGI (K-562 leukemia) | TGI (TK-10 renal) | TGI (MCF7 breast) | TGI (LOX IMVI melanoma) | TGI (KM12 colon) | TGI (EKVX NSCLC) | TGI (IGROV1 ovarian) | TGI (SF-268 CNS) | TGI (UACC-257 melanoma) | TGI (SNB-75 CNS) | TGI (786-0 renal) | TGI (NCI-H226 lung) | TGI (HCT-15 colon) | TGI (OVCAR-4 ovarian) | TGI (BT-549 breast) | TGI (CCRF-CEM leukemia) | TGI (DU-145 prostate) | TGI (SR leukemia) | TGI (ACHN renal) | TGI (SNB-19 CNS) | TGI (PC-3 prostate) | TGI (HT29 colon) | TGI (U251 CNS) | TGI (A549 NSCLC) | TGI (SK-MEL-2 melanoma) | TGI (M14 melanoma) | TGI (SF-295 CNS) | TGI (MOLT-4 leukemia) | TGI (NCI/ADR-RES ovarian) | TGI (HOP-92 NSCLC) | TGI (CAKI-1 renal) | TGI (SK-MEL-5 melanoma) | TGI (HCT-116 colon) | TGI (UO-31 renal) | TGI (HS 578T breast) | TGI (SK-OV-3 ovarian) | TGI (MDA-MB-435) | TGI (OVCAR-8 ovarian) | TGI (HL-60(TB) leukemia) | TGI (NCI-H522 lung) | TGI (SF-539 CNS) | TGI (RPMI-8226 leukemia) | TGI (COLO 205 colon) | TGI (SN12C renal) | TGI (NCI-H23 lung) | TGI (UACC-62 melanoma) | TGI (HOP-62 NSCLC) | TGI (HCC-2998 colon) | TGI (MDA-MB-231 breast) | TGI (MDA-N) | TGI (OVCAR-3 ovarian) | TGI (OVCAR-5 ovarian) | TGI (T-47D breast)
> 81.9 µM: TGI (SNB-78 CNS)
inactive: GI50 (SW-620 colon) > 1000 µM | GI50 (MALME-3M melanoma) > 1000 µM | GI50 (K-562 leukemia) > 1000 µM | GI50 (MCF7 breast) > 1000 µM | GI50 (LOX IMVI melanoma) > 1000 µM | GI50 (KM12 colon) > 1000 µM | GI50 (EKVX NSCLC) > 1000 µM | GI50 (IGROV1 ovarian) > 1000 µM | GI50 (SF-268 CNS) > 1000 µM | GI50 (UACC-257 melanoma) > 1000 µM | GI50 (SNB-75 CNS) > 1000 µM | GI50 (NCI-H226 lung) > 1000 µM | GI50 (HCT-15 colon) > 1000 µM | GI50 (OVCAR-4 ovarian) > 1000 µM | GI50 (CCRF-CEM leukemia) 108 µM | GI50 (SNB-19 CNS) > 1000 µM | GI50 (HT29 colon) > 1000 µM | GI50 (U251 CNS) > 1000 µM | GI50 (A549 NSCLC) > 1000 µM | GI50 (SK-MEL-2 melanoma) > 1000 µM | GI50 (SF-295 CNS) > 1000 µM | GI50 (MOLT-4 leukemia) 87.5 µM | GI50 (HOP-92 NSCLC) > 1000 µM | GI50 (CAKI-1 renal) > 1000 µM | GI50 (SK-MEL-5 melanoma) > 1000 µM | GI50 (HCT-116 colon) > 1000 µM | GI50 (SK-OV-3 ovarian) > 1000 µM | GI50 (SF-539 CNS) > 1000 µM | GI50 (RPMI-8226 leukemia) > 1000 µM | GI50 (COLO 205 colon) > 1000 µM | GI50 (SN12C renal) > 1000 µM | GI50 (NCI-H23 lung) > 1000 µM | GI50 (UACC-62 melanoma) > 1000 µM | GI50 (HOP-62 NSCLC) > 1000 µM | GI50 (HCC-2998 colon) > 1000 µM | GI50 (OVCAR-3 ovarian) > 1000 µM | GI50 (OVCAR-5 ovarian) > 1000 µM
